Columns and labels:
venous thrombosis = venous thrombosis test in rats (venous stasis under hypercoagulation with factor Xa, Wessler technique), activity via the oral route; type: in vivo, rat; conditions: male Wistar rats, dose 6 mg/kg, thrombosis induced 2 h after administration
Method: The antithrombotic activity of the compounds according to the invention was studied in vivo in rats by virtue of a test in which a venous thrombosis is reproduced. The venous thrombosis was induced according to the protocol described in Thromb. Haemost., 1992, 67(1), 176-179. The activity via the oral route was studied according to the procedure described below. The experiment is carried out on non-fasting male Wistar rats weighing from 250 to 280 g and divided into groups of 10 animals each. The test products are administered orally (intubation) in solution or in suspension in a methylcellulose solution (0.5% in water). The concentrations of the compounds are calculated so as to bring about the absorption of an amount of solution of 10 ml/kg orally. A thrombosis is induced at time T after the administration of the product and the thrombus formed is removed and weighed. In order to induce this thrombosis, a venous stasis is brought about under hypercoagulation, according to the technique described by Wessler (J. Applied Physiol., 1959, 943-946), using a solution of activated factor X (Xa), supplied by Biogenic (Montpellier) and comprising a dose of 7.5 nKat/kg, as hypercoagulant. The venous stasis is brought about 10 seconds exactly after the injection of the hypercoagulant. The activity of the test compounds was monitored at various doses, after they had been administered. The thrombosis was induced 2 hours after the administration of the compound. By way of example, the results of the above tests are given in the following table for a few compounds according to the invention (the activity is expressed by the percentage of inhibition of the formation of the thrombus, observed in the presence of the compound according to the invention, with respect to the weight of the thrombus formed in the absence of the compound).

Row | Compound | melting point [°C] | Activity (percentage of inhibition of the formation of the thrombus) (venous thrombosis) [%]
1 | O[C@@H]1[C@@H](O)[C@H](Oc2ccc(-c3ccncc3)cc2)SC[C@H]1O [Example 8, 4-(4-Pyridinyl)phenyl-5-thio-β-D-xylopyranoside] |  | 91
2 | O[C@@H]1[C@@H](O)[C@H](Oc2ccc(-c3ccccn3)cc2)SC[C@H]1O [Example 10, 4-(2-Pyridinyl)phenyl 5-thio-β-D-xylopyranoside] | 197 | 86
3 | O[C@@H]1[C@@H](O)[C@H](Oc2cccc(-c3ccccn3)c2)SC[C@H]1O [Example 12, 3-(2-Pyridinyl)phenyl 5-thio-β-D-xylopyranoside] | 138 to 139 | 88
4 | O[C@@H]1[C@@H](O)[C@H](Oc2cc(F)ccc2-c2ccncc2)SC[C@H]1O [Example 28, 5-Fluoro-2-(4-pyridinyl)phenyl 5-thio-β-D-xylopyranoside] |  | 71
5 | Cc1ccc(-c2cccc(O[C@@H]3SC[C@@H](O)[C@H](O)[C@H]3O)c2)cn1 [Example 29, 3-(6-Methyl-3-pyridinyl)phenyl 5-thio-β-D-xylopyranoside] | 177 | 
6 | COc1ncccc1-c1cccc(O[C@@H]2SC[C@@H](O)[C@H](O)[C@H]2O)c1 [Example 33, 3-(2-Methoxy-3-pyridinyl)phenyl 5-thio-β-D-xylopyranoside] | 194 | 

Continued, in another order:

Row | melting point [°C] | Compound | Activity (percentage of inhibition of the formation of the thrombus) (venous thrombosis) [%]
7 | 166 | O[C@@H]1[C@@H](O)[C@H](Oc2ccc(-c3cccnc3)cc2)SC[C@H]1O [Example 6, 4-(3-Pyridinyl)phenyl 5-thio-β-D-xylopyranoside] | 
8 | 134 | O[C@@H]1[C@@H](O)[C@H](Oc2ccccc2-c2ccncc2)SC[C@H]1O [Example 16, 2-(4-Pyridinyl)phenyl 5-thio-β-D-xylopyranoside] | 
9 | 195 | O[C@@H]1[C@@H](O)[C@H](Oc2ccccc2-c2cccnc2)SC[C@H]1O [Example 18, 2-(3-Pyridinyl)phenyl 5-thio-β-D-xylopyranoside] | 
10 | 197 | O[C@@H]1[C@@H](O)[C@H](Oc2cccc(-c3cccnc3)c2)SC[C@H]1O [Example 22, 3-(3-Pyridinyl)phenyl 5-thio-β-D-xylopyranoside] | 81
11 | 207 | O[C@@H]1[C@@H](O)[C@H](Oc2ccc(-c3cccnc3)cc2F)SC[C@H]1O [Example 24, 2-Fluoro-4-(3-pyridinyl)phenyl 5-thio-β-D-xylopyranoside] | 
